Measured values from patent US11497752B2, “Compounds and uses thereof” (Foghorn Therapeutics Inc., priority 2018, dated 2022).

Tests used:
BRG-1 = BRG-1 (Homo sapiens, UniProt P51532); test: ATPase catalytic activity of BRG-1 (ADP-Glo in vitro biochemical assay); conditions: for BRG1 Max % Inhibition: Table 6
BRM = BRM (Homo sapiens, UniProt P51531); test: ATPase catalytic activity of BRM (ADP-Glo in vitro biochemical assay); conditions: for BRM Max % Inhibition: Table 6
Chain of BRM (P51531 whole entry): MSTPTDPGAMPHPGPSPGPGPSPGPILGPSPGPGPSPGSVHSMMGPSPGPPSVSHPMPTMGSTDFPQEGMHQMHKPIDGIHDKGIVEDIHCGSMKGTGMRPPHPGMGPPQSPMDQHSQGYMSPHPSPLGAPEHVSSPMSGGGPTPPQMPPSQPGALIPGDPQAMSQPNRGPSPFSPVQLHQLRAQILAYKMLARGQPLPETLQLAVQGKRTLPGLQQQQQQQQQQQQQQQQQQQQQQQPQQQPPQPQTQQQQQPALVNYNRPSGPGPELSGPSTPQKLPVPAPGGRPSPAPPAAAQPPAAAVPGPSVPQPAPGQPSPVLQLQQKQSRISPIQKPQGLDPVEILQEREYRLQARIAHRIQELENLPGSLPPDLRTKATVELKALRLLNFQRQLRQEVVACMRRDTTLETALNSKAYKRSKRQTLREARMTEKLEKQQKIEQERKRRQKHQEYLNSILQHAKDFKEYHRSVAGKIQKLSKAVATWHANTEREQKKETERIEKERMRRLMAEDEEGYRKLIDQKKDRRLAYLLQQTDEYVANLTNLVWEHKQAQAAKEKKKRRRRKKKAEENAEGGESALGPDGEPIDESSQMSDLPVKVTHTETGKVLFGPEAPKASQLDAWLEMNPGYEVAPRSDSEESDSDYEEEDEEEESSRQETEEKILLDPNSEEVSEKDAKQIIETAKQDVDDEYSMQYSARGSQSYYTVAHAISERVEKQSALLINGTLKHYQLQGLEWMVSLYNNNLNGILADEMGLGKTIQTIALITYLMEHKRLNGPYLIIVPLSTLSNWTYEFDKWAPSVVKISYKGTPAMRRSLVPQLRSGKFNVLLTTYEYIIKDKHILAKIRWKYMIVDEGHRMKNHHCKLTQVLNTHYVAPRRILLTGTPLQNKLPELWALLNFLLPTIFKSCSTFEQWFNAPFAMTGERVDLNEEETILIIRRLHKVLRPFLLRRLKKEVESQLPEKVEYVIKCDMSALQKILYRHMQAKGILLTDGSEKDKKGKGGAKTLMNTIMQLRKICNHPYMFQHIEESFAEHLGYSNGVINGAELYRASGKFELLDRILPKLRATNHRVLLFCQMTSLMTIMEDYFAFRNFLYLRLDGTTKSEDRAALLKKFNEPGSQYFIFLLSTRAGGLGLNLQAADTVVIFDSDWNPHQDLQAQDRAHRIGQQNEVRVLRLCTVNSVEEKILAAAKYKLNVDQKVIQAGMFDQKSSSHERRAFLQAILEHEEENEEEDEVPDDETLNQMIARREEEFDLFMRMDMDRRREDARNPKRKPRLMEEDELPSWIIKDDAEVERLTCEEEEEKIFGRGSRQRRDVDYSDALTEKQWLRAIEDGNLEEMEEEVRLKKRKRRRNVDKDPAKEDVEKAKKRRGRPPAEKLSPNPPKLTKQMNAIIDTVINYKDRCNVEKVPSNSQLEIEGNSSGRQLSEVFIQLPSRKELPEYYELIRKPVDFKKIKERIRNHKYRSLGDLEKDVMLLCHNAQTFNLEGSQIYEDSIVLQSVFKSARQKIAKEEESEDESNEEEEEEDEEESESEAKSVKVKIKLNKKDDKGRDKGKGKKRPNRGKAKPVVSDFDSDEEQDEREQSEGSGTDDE

Chain of BRG-1 (P51532 whole entry): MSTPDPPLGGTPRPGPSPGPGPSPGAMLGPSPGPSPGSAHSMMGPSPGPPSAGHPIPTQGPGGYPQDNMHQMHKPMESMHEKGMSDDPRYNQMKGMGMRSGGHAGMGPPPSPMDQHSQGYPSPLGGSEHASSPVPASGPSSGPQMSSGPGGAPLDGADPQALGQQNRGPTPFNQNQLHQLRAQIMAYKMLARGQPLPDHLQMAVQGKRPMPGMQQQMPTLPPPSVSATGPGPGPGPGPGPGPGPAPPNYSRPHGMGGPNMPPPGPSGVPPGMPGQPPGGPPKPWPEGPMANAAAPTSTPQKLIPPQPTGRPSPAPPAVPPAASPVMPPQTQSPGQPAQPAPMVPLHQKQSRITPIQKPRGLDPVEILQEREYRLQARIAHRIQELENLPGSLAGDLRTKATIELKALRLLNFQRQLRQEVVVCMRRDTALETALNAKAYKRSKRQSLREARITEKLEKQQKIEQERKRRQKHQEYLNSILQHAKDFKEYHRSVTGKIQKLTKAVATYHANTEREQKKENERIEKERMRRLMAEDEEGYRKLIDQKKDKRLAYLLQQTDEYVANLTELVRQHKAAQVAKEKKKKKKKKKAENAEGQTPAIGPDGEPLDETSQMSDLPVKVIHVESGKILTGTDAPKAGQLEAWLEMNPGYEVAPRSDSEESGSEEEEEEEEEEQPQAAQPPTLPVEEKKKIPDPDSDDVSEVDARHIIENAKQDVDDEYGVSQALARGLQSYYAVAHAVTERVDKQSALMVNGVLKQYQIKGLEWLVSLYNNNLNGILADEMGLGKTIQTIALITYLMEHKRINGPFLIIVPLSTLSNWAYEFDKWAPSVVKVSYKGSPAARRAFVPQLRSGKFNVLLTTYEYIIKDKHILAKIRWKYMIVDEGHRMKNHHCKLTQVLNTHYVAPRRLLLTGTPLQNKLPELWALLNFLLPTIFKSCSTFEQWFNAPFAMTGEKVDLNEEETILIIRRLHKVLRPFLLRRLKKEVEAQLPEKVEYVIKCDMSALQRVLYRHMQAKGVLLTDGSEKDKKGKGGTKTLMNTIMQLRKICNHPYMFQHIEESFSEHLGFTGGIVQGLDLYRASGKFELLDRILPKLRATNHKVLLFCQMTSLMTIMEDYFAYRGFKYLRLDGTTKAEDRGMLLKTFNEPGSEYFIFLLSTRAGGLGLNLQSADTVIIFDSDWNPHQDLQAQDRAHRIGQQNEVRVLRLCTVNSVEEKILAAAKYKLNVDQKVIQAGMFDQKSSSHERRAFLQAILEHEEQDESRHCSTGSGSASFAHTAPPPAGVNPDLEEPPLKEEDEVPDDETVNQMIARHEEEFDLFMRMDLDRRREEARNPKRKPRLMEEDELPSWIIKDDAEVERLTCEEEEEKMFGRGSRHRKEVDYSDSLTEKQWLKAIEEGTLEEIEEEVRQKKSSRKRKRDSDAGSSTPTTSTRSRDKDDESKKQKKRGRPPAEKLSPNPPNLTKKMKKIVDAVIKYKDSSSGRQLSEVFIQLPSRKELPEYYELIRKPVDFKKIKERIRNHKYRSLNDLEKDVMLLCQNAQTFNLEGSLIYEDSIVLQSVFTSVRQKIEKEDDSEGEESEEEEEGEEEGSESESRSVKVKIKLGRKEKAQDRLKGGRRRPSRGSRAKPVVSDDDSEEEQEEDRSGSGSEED

IC50 (BRG-1) [nM]	BRG1 Max % Inhibition (BRG-1)	IC50 (BRM) [nM]	BRM Max % Inhibition (BRM) [%]	SMILES
< 100	>95%	< 100	>95	COc1cc(-c2cccc(-c3csc(NC(=O)CNC(=O)c4ccc(N)cc4)n3)c2)ccn1 [Compound 146, 4-amino-N-(2-((4-(3-(2-methoxypyridin-4-yl)phenyl)thiazol-2-yl)amino)-2-oxoethyl)benzamide]
< 100	>95%	< 100	>95	Nc1ccc(C(=O)NCC(=O)Nc2nc(-c3ccc4cc[nH]c(=O)c4c3)cs2)cc1 [Compound 147, 4-amino-N-(2-oxo-2-((4-(1-oxo-1,2-dihydroisoquinolin-7-yl)thiazol-2-yl)amino)ethyl)benzamide]
< 100	>95%	< 100	>95	Cn1cnc2ccc(-c3csc(NC(=O)CNC(=O)c4ccc(N)cc4)n3)cc2c1=O [Compound 148, 4-amino-N-(2-((4-(3-methyl-4-oxo-3,4-dihydroquinazolin-6-yl)thiazol-2-yl)amino)-2-oxoethyl)benzamide]
< 100	>80%	< 100	>80	N#Cc1ccc(-c2cccc(-c3csc(NC(=O)CNC(=O)c4ccc(N)cc4)n3)c2)cc1 [Compound 149, 4-amino-N-(2-((4-(4′-cyano-[1,1′-biphenyl]-3-yl)thiazol-2-yl)amino)-2-oxoethyl)benzamide]
< 100	>90%	< 100	>95	Cn1ncc2ccc(-c3csc(NC(=O)CNC(=O)c4ccc(N)cc4)n3)cc2c1=O [Compound 150, 4-amino-N-(2-((4-(3-methyl-4-oxo-3,4-dihydrophthalazin-6-yl)thiazol-2-yl)amino)-2-oxoethyl)benzamide]
100 to 1000	>80%	100 to 1000	>80	Nc1ccc(C(=O)NCC(=O)Nc2nc(-c3cccc(-c4ccn(CC(F)(F)F)n4)c3)cs2)cc1 [Compound 151, 4-amino-N-(2-oxo-2-((4-(3-(1-(2,2,2-trifluoroethyl)-1H-pyrazol-3-yl)phenyl)thiazol-2-yl)amino)ethyl)benzamide]
100 to 1000	>80%	100 to 1000	>90	Nc1ccc(C(=O)NCC(=O)Nc2nc(-c3cccc(-c4cccc(F)c4)c3)cs2)cc1 [Compound 152, 4-amino-N-(2-((4-(3′-fluoro-[1,1′-biphenyl]-3-yl)thiazol-2-yl)amino)-2-oxoethyl)benzamide]
< 100	>80%	< 100	>90	Nc1ccc(C(=O)NCC(=O)Nc2nc(-c3cccc(-c4ccc(CO)cc4)c3)cs2)cc1 [Compound 153, 4-amino-N-(2-((4-(4′-(hydroxymethyl)-[1,1′-biphenyl]-3-yl)thiazol-2-yl)amino)-2-oxoethyl)benzamide]
< 100	>95%	< 100	>95	Nc1ccc(C(=O)NCC(=O)Nc2nc(-c3cccc(-c4cccc(CO)c4)c3)cs2)cc1 [Compound 154, 4-amino-N-(2-((4-(3′-(hydroxymethyl)-[1,1′-biphenyl]-3-yl)thiazol-2-yl)amino)-2-oxoethyl)benzamide]
100 to 1000	>90%	100 to 1000	>95	Nc1ccc(C(=O)NCC(=O)Nc2nc(-c3cccc(-c4cc[n+]([O-])cc4)c3)cs2)cc1 [Compound 156, 4-(3-(2-(2-(4-aminobenzamido)acetamido)thiazol-4-yl)phenyl)pyridine 1-oxide]
< 100	>90%	< 100	>95	N#Cc1cccc(-c2cccc(-c3csc(NC(=O)CNC(=O)c4ccc(N)cc4)n3)c2)c1 [Compound 157, 4-amino-N-(2-((4-(3′-cyano-[1,1′-biphenyl]-3-yl)thiazol-2-yl)amino)-2-oxoethyl)benzamide]
100 to 1000	>95%	100 to 1000	>90	NCC1CC=C(c2cccc(-c3csc(NC(=O)CNC(=O)c4ccc(N)cc4)n3)c2)CC1 (stereo not shown) [Compound 158, 4-amino-N-(2-((4-(4′-(aminomethyl)-2′,3′,4′,5′-tetrahydro-[1,1′-biphenyl]-3-yl)thiazol-2-yl)amino)-2-oxoethyl)benzamide]
100 to 1000	>95%	100 to 1000	>90	Nc1ccc(C(=O)NCC(=O)Nc2nc(-c3cccc(-c4ccnc(N5CCNCC5)c4)c3)cs2)cc1 [Compound 159, 4-amino-N-(2-oxo-2-((4-(3-(2-(piperazin-1-yl)pyridin-4-yl)phenyl)thiazol-2-yl)amino)ethyl)benzamide]
100 to 1000	>95%,	100 to 1000	>95	NCCNc1cc(-c2cccc(-c3csc(NC(=O)CNC(=O)c4ccc(N)cc4)n3)c2)ccn1 [Compound 160, 4-amino-N-(2-((4-(3-(2-((2-aminoethyl)amino)pyridin-4-yl)phenyl)thiazol-2-yl)amino)-2-oxoethyl)benzamide]
< 100	>95%	< 100	>95	Nc1ccc(C(=O)NCC(=O)Nc2nc(-c3cccc(-c4ccn(C5CCOCC5)n4)c3)cs2)cc1 [Compound 162, 4-amino-N-(2-oxo-2-((4-(3-(1-(tetrahydro-2H-pyran-4-yl)-1H-pyrazol-3-yl)phenyl)thiazol-2-yl)amino)ethyl)benzamide]
100 to 1000	>95%	< 100	>95	NCCOc1cc(-c2cccc(-c3csc(NC(=O)CNC(=O)c4ccc(N)cc4)n3)c2)ccn1 [Compound 163, 4-amino-N-(2-((4-(3-(2-(2-aminoethoxy)pyridin-4-yl)phenyl)thiazol-2-yl)amino)-2-oxoethyl)benzamide]
< 100	>95%	< 100	>95	NCc1cc(-c2cccc(-c3csc(NC(=O)CNC(=O)c4ccc(N)cc4)n3)c2)ccn1 [Compound 164, 4-amino-N-(2-((4-(3-(2-(aminomethyl)pyridin-4-yl)phenyl)thiazol-2-yl)amino)-2-oxoethyl)benzamide]
< 100	>95%	< 100	>95	Nc1ccc(C(=O)NCC(=O)Nc2nc(-c3cccc(-c4ccnc(CO)c4)c3)cs2)cc1 [Compound 165, 4-amino-N-(2-((4-(3-(2-(hydroxymethyl)pyridin-4-yl)phenyl)thiazol-2-yl)amino)-2-oxoethyl)benzamide]
100 to 1000	>95%	100 to 1000	>95	NCCn1ccc(-c2cccc(-c3csc(NC(=O)CNC(=O)c4ccc(N)cc4)n3)c2)cc1=O [Compound 166, 4-amino-N-(2-((4-(3-(1-(2-aminoethyl)-2-oxo-1,2-dihydropyridin-4-yl)phenyl)thiazol-2-yl)amino)-2-oxoethyl)benzamide]
